Patent US8618082B2, “Lupeol anti-tumor agent and uses thereof” (Wisconsin Alumni Research Foundation, priority 2004, dated 2013)

Key:
[1] = tested on: NFκB-DNA binding activity; assay: NFκB-DNA binding by electrophoretic mobility shift assay (EMSA); format: in vivo; settings: prior application of Lupeol to mouse skin
Experimental: (b) At different times after treatment, the animals were sacrificed, nuclear lysates were prepared, and DNA binding was determined by […] as described under ‘Materials and Methods’. C1, C2, and C3 refer to inter experimental controls, where C1 represents biotin-EBNA (epistein barr virus nuclear antigen) control DNA, C2 represents Biotin-EBNA control DNA and EBNA extract and C3 represents Biotin-EBNA control DNA and EBNA extract plus 200 fold molar excess of EBNA DNA.
(§1) Epidermis from the whole skin was separated as described earlier (Katiyar et al., 1999) and was homogenized in ice-cold lysis buffer [50 mM Tris-HCl, 150 mM NaCl, 1 mM EGTA, 1 mM EDTA, 20 mM NaF, 100 mM Na3VO4, 0.5% NP-40, 1% Triton X-100, 1 mM PMSF (pH 7.4)] with freshly added protease inhibitor cocktail, Protease Inhibitor Cocktail Set III (Calbiochem, La Jolla, Calif., USA). […] The protein content in the lysates was measured by DC BioRad assay (BioRad Laboratories, Hercules, Calif.) as per the manufacturer's protocol.
EMSA for NFκB was performed using Lightshift™ chemiluminescent EMSA kit (Pierce, Rockford, Ill., USA) by following the manufacturer's protocol. […] The biotin end-labeled DNA was detected using streptavidin-horseradish peroxidase conjugate and a chemiluminescent substrate. […]

[2] = tested on: epidermal iNOS protein; assay: TPA-induced epidermal iNOS protein expression (western blot); format: in vivo, mouse
Experimental: FIG. 4. Inhibitory effect of Lupeol on TPA-induced epidermal ODC, iNOS and COX-2 protein expression in CD-1 mice: At different times after treatment, the animals were sacrificed, epidermal protein lysate was prepared, and ODC and COX-2 protein expression were determined. Equal loading of protein was confirmed by stripping the immunoblot and reprobing it for β-actin. The immunoblots shown here are representative of three independent experiments with similar results. The values above each lane indicate relative density of the band normalized to β-actin.
The animals were shaved on the dorsal side of the skin, divided into four groups and treated topically on the shaved area with either 0.4 ml vehicle (acetone), or TPA (3.2 nmol/0.4 ml acetone/animal, v/v), or Lupeol (1 or 2 mg/0.2 ml acetone/animal, w/v) followed 30 min later with TPA (3.2 nmol/0.2 ml acetone/animal). Animals were sacrificed at different times point i.e. 6, 12, 24 and 48 h post TPA treatment. […]
as §1
For western blot analysis, 40 μg of the protein was resolved over 8-12% polyacrylamide gels and transferred to a nitrocellulose membrane. […] This was followed by incubation with anti-mouse or anti-rabbit secondary antibody horse-radish peroxidase (Amersham Life Sciences, Inc., USA) for 1 h and then washed several times and detected by chemiluminescence ECL kit, (Amersham Life Sciences, Inc., USA) and autoradiography using XAR-5 film obtained from Eastman Kodak Co. (Rochester, N.Y., USA). […]

[3] = tested on: Fas receptor protein; assay: Fas receptor expression in LNCaP cells treated with Lupeol plus anti-Fas mAb (western blot); format: cell-based, human; settings: anti-Fas mAb pretreated LNCaP cells treated with Lupeol
Experimental: FIG. 16 depicts cells that were treated with vehicle (DMSO+alcohol) only or specified concentrations of Lupeol alone, anti-Fas mAb or with combination (Lupeol+anti-Fas mAb) for 48 h, harvested and total cell lysates were prepared. The expression of Fas receptor protein in total cell lysate was determined by western blot analysis. Equal loading was confirmed by stripping immunoblots and reprobing them for β-actin. The immunoblots shown here are representative of three independent experiments with similar results.

Compound: C=C(C)[C@@H]1CC[C@]2(C)CC[C@]3(C)[C@H](CC[C@@H]4[C@@]5(C)CC[C@H](O)C(C)(C)[C@@H]5CC[C@]43C)[C@@H]12 [Lupeol, Lup-20(29)-en-3β-ol]
- TPA-induced epidermal NFκB DNA binding activity [1]: significantly inhibited
- inhibition against TPA-induced epidermal iNOS protein expression (densitometry) ([2]; Lupeol 2 mg/animal): 74%
- epidermal iNOS protein expression after Lupeol alone ([2]; Lupeol alone 2 mg): did not produce any change
- Fas protein expression [3]: highly increased
